“Also recorded” adds a separate entry of the source.

The target of experiment [1] is T1, LasB elastase activity of dialysed supernatant from P. aeruginosa PAO1 (Pseudomonas aeruginosa, UniProt P14756).
T1 construct: Culture supernatants are recovered by centrifugation and filtrated through a 0.22 μM filter; endogenous in cells; host or cells: P. aeruginosa strain PAO1, culture supernatant, filtered and dialysed
Nature of the experiment: Elastin Congo-Red assay to determine % inhibition (dialysed PAO1 supernatant). To be noted: read-out: Elastin hydrolysis % inhibition @ 25 μM inhibitor concentration. It is filed as biochemical. The method in brief:
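End-point assay: dialysed PAO1 culture supernatant (in 50 mM Tris-HCl pH 7.4, 2.5 mM CaCl2) mixed with Elastin Congo-Red plus 0.01% Triton X100 and compound (routinely 50 to 1.56 μM), incubated overnight at 37 °C with shaking. Released dye read at OD495nm; % inhibition relative to DMSO and enzyme-free controls.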

Experiment [2] relates to PA (PAO1). Nature of the experiment: Mouse model of Pseudomonas aeruginosa lung infection. It is filed as in vivo. The conditions noted are these: mice infected with wild-type PAO1, i.v. 1 h and 2 h post infection, 10 and 30 mg/kg, 24 hours post infection. The protocol:
Mice were dosed by intranasal inoculation of PA (PAO1), then sacrificed after 24 hours. The extent of infection in the lung was quantified by bacterial load (CFU determination, colony forming units) and the levels of proinflammatory IL-1β. Statistical analysis on both readouts were performed by ANOVA with a Dunnett post-test.
Compounds were administered intravenously in a two-dose regimen (1 hour and 2 hours post infection) at two different doses (10 and 30 mg/kg).

The target of experiment [3] is T2, purified LasB protein from P. aeruginosa (Pseudomonas aeruginosa, UniProt P14756).
T2 construct: purchased Merck or Charles River Laboratories
Description: Fluorometric assay to determine Ki (purified LasB, Abz-Ala-Gly-Leu-Ala-p-Nitro-Benzyl-Amide substrate). It is filed as biochemical. The method in brief:
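Purified P. aeruginosa LasB (10-140 ng/ml) with 250 μM Abz-Ala-Gly-Leu-Ala-p-nitrobenzylamide in Tris pH 7.4, 2.5 mM CaCl2, 0.01% Triton X100; fluorescence (340/415 nm) followed 30 min at 37 °C. IC50 from 2-fold series (0.0016-200 μM); Ki = IC50/(1+[S]/Km), Km 214 μM.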

For experiment [4], the target named is T3, LasB from Pseudomonas aeruginosa (Pseudomonas aeruginosa, UniProt P14756).
T3 construct: host or cells: Exogenous enzyme applied apically to NHBE cells
Description: Inhibition of LasB-mediated reduction of CFTR levels on airway cells (CFTR IP / Western blot). To be noted: NHBE airway cells, 100 nM LasB, 1, 10 or 100 μM compound, 24 hrs. It is filed as cell-based. On the procedure:
These experiments measured the amount of CFTR protein expressed in airway cells under normal conditions and also exposed to 100 nM LasB. […] The effect of adding increasing concentrations of a LasB inhibitor (here the compound of Example 23) on this reduction of CFTR by LasB was then examined.
Normal Human Bronchial Epithelial (NHBE) airway cells were expanded in Pneumacult™ EX medium on plastic PureCol™ coated dishes. Cells were plated on Millicell inserts (200K/insert) and differentiated at air-liquid interface for 26 days in modified Lonza Medium. Prior to treatment, cells were washed in 1×DPBS buffer.
Treatments were 100 nM LasB from Pseudomonas aeruginosa and 0, 1, 10, or 100 μM Example 23 for 24 hrs. A stock solution of LasB (200 nM) was prepared in buffer containing 50 mM Tris HCL pH 7.4, 2.5 mM CaCl2 and 0.01% TritonX-100. A 20 mM stock solution of Example 23 was made in DMSO and sonicated for 10 minutes. The DMSO stock was diluted, 10 μL into 990 μL buffer, to give a 200 μM solution. […]
The cells were lysed with 1% NP-40 lysis buffer containing protease inhibitors (1 μg/ml leupeptin, 2 μg/ml aprotinin, […] pefabloc, 121 μg/ml benzamidine, 3.5 μg/ml E64) and stored at −80° C. until IP/WB analysis. […] Protein bands were visualized using a Sapphire Biomolecular Imager (Azure Biosystems) and quantitated with AzureSpot Analysis Software.
Background: A western blot detects proteins with antibodies after separation by electrophoresis.

Experiment [5] addresses purified LasB (Pseudomonas aeruginosa, UniProt P14756). Nature of the experiment: Inhibition of LasB-mediated hydrolysis of pro-IL-1β to IL-1β (FRET peptide). It is filed as biochemical. On the procedure: Hydrolysis of this FRET peptide was continuously monitored using a Victor multimode plate reader (Perkin Elmer) with excitation 355 nm and emission at 450 nm in the presence of varying concentrations of compounds of the invention. Inhibitory constants (Ki) were determined for certain compounds of the invention (at least 2 independent replicates) using a competitive inhibitor model.

The subject of experiment [6] is PAO1 WT secretome (contains LasB). The conditions noted are these: WT-SEC treated cells; cited from earlier work.
Experiment [7] relates to cells infected by tobramycin-resistance PA bacteria. To be noted: combination with CFTR modulators, tobramycin-resistant PA; cited from earlier work.
Experiment [8] deals with F508del-CFTR cells. Description: Forskolin-activated CFTR response in CF-mutant human bronchial epithelial cells (membrane potential dye). It is filed as cell-based. The protocol:
This example describes experiments showing that LasB impacted CFTR function in CF mutant cells can be mitigated by treatment with CFTR modulators and LasB inhibitors.
Wild Type human bronchial epithelial (HBE) cells and CF-mutant human bronchial epithelial cells (F508del-CFTR) are grown at 37° C. for 5 days and loaded onto 96-well plate cultures. The cells are loaded with blue membrane potential dye dissolved in chloride-free buffer. The plate is read in a fluorescence plate reader at 37° C. (excitation: 530 nm; emission; […]). CFTR is stimulated with forskolin.
A control signal defined as 100% transmission is obtained from WT human bronchial epithelial cells alone. A minor suppression of forskolin-activated CFTR response is expected for such WT cells in the presence of LasB.
Moderate suppression in the forskolin-activated CFTR response will be observed for CF-mutant cells. This moderate suppression will be reduced by addition of a CFTR modulator such as VX-809 (lumacaftor).
Substantial suppression in the forskolin-activated CFTR response is expected for CF-mutant cells in the presence of LasB, even following the addition of a CFTR modulator, due to the deleterious effect of LasB on expressed CFTR protein.

T1 sequence (P14756 198-498): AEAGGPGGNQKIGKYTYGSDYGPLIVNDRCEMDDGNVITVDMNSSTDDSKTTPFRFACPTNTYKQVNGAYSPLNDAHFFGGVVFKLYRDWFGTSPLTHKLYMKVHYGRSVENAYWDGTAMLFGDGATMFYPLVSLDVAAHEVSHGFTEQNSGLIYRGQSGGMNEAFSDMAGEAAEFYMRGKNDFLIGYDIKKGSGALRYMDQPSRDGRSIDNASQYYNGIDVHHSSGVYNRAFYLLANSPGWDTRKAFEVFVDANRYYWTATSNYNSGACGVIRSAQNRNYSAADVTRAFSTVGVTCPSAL
Sequence of purified LasB (P14756 198-498): as above
T2 sequence (P14756 198-498): as above
T3 sequence (P14756 198-498): as above

On to `COc1cc2sc(CNC(=O)C3(CC(=O)[O-])Cc4cc(F)c(F)cc4C3)nc2cc1OCCC[N+](C)(CCO)CCO` [Example 23, 2-[2-[[5-[3-[bis(2-hydroxyethyl)-methyl-ammonio]propoxy]-6-methoxy-1,3-benzothiazol-2-yl]methylcarbamoyl]-5,6-difluoro-indan-2-yl]acetate], for which, in experiment [1], the inhibition at 25 µM is > 80%. In experiment [2], the “extent of infection in the lung (CFU levels)” value is on record as “reduced the extent of infection in the lung to the level of the LasB deleted mutant”; the “production and activation of IL-1β in the lung” value was “inhibited the production and activation of IL-1β in mice infected by wild-type PA (PA01) at a similar level than the lasB deleted mutant”. Moreover, the Ki (usually a dissociation constant, usually derived from enzyme kinetics or from competition with a known ligand) in experiment [3] was < 50 nM. The “CFTR protein level in LasB-exposed cells” value in experiment [4] is recorded as “ameliorated by increasing concentrations of Example 23; also recorded: counteract the reduction in CFTR expression caused by LasB in a dose-related manner”. This compound also gave a Ki in experiment [5] of 500 nM.

For the compound `CC(C)C[C@H](NP(=O)(O)O[C@@H]1O[C@@H](C)[C@H](O)[C@@H](O)[C@H]1O)C(=O)N[C@@H](Cc1c[nH]c2ccccc12)C(=O)O` [phosphoramidon], in experiment [6], the “downregulation of trappin-2 and IL-6 by WT secretome” value is “prevented”.

Consider `NC[C@H]1O[C@H](O[C@H]2[C@H](O)[C@@H](O[C@H]3O[C@H](CO)[C@@H](O)[C@H](N)[C@H]3O)[C@H](N)C[C@@H]2N)[C@H](N)C[C@@H]1O` [tobramycin], for which the “restoration of CFTR function” value in experiment [7] is “incapable of restoring CFTR function”.

Consider `COc1cc2sc(CNC(=O)C3(CC(=O)[O-])Cc4cc(F)c(F)cc4C3)nc2cc1OCC1CC[N+](C)(C)CC1` [Example 44, 2-[2-[[5-[(1,1-dimethylpiperidin-1-ium-4-yl)methoxy]-6-methoxy-1,3-benzothiazol-2-yl]methylcarbamoyl]-5,6-difluoro-indan-2-yl]acetate], for which the inhibition at 25 µM in experiment [1] is > 80%. Besides, the Ki is < 50 nM in experiment [3] and 300 nM in experiment [5].

With `COc1cc2sc(CNC(=O)C3(CC(=O)[O-])Cc4cc(F)c(F)cc4C3)nc2cc1OCCC[N+]1(C)CCCC1` [Example 19, 2-[5,6-difluoro-2-[[6-methoxy-5-[3-(1-methylpyrrolidin-1-ium-1-yl)propoxy]-1,3-benzothiazol-2-yl]methylcarbamoyl]indan-2-yl]acetate], the inhibition at 25 µM in experiment [1] was > 80%. In addition, the inhibition constant (Ki) was < 50 nM in experiment [3] and 270 nM in experiment [5].

Consider `Cc1ccc(NC(=O)C2(c3ccc4c(c3)OC(F)(F)O4)CC2)nc1-c1cccc(C(=O)O)c1` [VX-809, lumacaftor, reference compound], for which the “Maximum forskolin-activated response of CFTR channels compared to WT human bronchial epithelial cells” value in experiment [8] (F508del-CFTR cells + 10 μM VX-809) is “Minor suppression of CFTR”; in experiment [8] (F508del-CFTR cells + 10 μM VX-809 + 0.01 μM LasB) it was “substantial suppression of CFTR”.

Consider `COc1cc2sc(CNC(=O)C3(CC(=O)[O-])Cc4ccccc4C3)nc2cc1OCCC[N+](C)(C)C` [Example 53, 2-[2-[[6-methoxy-5-[3-(trimethylammonio)propoxy]-1,3-benzothiazol-2-yl]methylcarbamoyl]indan-2-yl]acetate], for which, in experiment [2], the “extent of infection in the lung (CFU levels)” value is on record as “reduced the extent of infection in the lung to the level of the LasB deleted mutant”; the “production and activation of IL-1β in the lung” value is “inhibited the production and activation of IL-1β in mice infected by wild-type PA (PA01) at a similar level than the lasB deleted mutant”. Moreover, the Ki in experiment [3] is < 50 nM. Besides, in experiment [8] (F508del-CFTR cells + 10 μM VX-809 + 0.01 μM LasB + 10 μM Example 53), the “Maximum forskolin-activated response of CFTR channels compared to WT human bronchial epithelial cells” value is on record as “forskolin-activated CFTR response being substantially restored; also recorded: Minor suppression of CFTR”. Besides, the affinity in experiment [5], expressed as Ki, was 700 nM.

Regarding `COc1cc2sc(CNC(=O)C3(CC(=O)O)Cc4ccccc4C3)nc2cc1OCCN1CCOCC1` [Example 9, 2-[2-[[6-methoxy-5-(2-morpholinoethoxy)-1,3-benzothiazol-2-yl]methylcarbamoyl]indan-2-yl]acetic acid], the inhibition at 25 µM in experiment [1] is > 80%. For the same compound, the results for the inhibitory constant (Ki) in experiment [3] and in experiment [5] were < 50 nM and 160 nM, respectively.
